Assay results reported in patent publication US6355799B1, “Substituted benzene compounds, process for their preparation, and herbicidal and defoliant compositions containing them” (ISK Americas Incorporated, priority 1997, dated 2002).

Experiments:
Assay type in all cases: in vivo
[1] = test system: redroot pigweed (Amaranthus retroflexus, AMARE); assay: Pre-emerge test, greenhouse herbicide activity screening; settings: pre-emerge, rated 14 days after application, 0 = no damage, 100 = complete death
In short: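 Rating: 0–100 visual injury, 14 DAA. Application: acetone, 187 l/ha, 15–1000 g ai/ha, flat-fan track sprayer with nozzle 40–45 cm above soil or canopy. Post-emerge runs used 0.25% v/v surfactant on 2–3 leaf plants.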

[2] = test system: sicklepod (Cassia obtusifolia, CASOB); assay: as above; settings: pre-emerge, rated 14 days after application, 0 = no damage, 100 = complete death
In short: (§1)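 Plants grown in 10 cm pots of sandy loam mix received acetone-dissolved compounds through a moving flat-fan nozzle. Doses ranged from 15 to 1000 g ai/ha. Pre-emerge pots were seeded one day earlier, post-emerge pots 8–21 days earlier. Fourteen days on, each pot was graded 0–100 for damage.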

[3] = test system: velvetleaf (Abutilon theophrasti, ABUTH); assay: as above; settings: pre-emerge, rated 14 days after application, 0 = no damage, 100 = complete death
In short: as §1

[4] = test system: barnyardgrass (Echinochloa crus-galli, ECHCG); assay: as above; settings: pre-emerge, rated 14 days after application, 0 = no damage, 100 = complete death
In short: as §1

[5] = test system: ivyleaf morningglory (Ipomoea hederacea, IPOHE); assay: as above; settings: pre-emerge, rated 14 days after application, 0 = no damage, 100 = complete death
In short: as §1

[6] = test system: lambsquarters (Chenopodium album, CHEAL); assay: as above; settings: pre-emerge, rated 14 days after application, 0 = no damage, 100 = complete death
In short: as §1

[7] = test system: large crabgrass (Digitaria sanguinalis, DIGSA); assay: as above; settings: pre-emerge, rated 14 days after application, 0 = no damage, 100 = complete death
In short: as §1

[8] = test system: common ragweed (Ambrosia artemisizfolia L., AMBEL); assay: as above; settings: pre-emerge, rated 14 days after application, 0 = no damage, 100 = complete death
In short: as §1

[9] = test system: green foxtail (Setaria viridis, SETVI); assay: as above; settings: pre-emerge, rated 14 days after application, 0 = no damage, 100 = complete death
In short: as §1

[10] = test system: johnsongrass (Sorghum halepense, SORHA); assay: as above; settings: pre-emerge, rated 14 days after application, 0 = no damage, 100 = complete death
In short: as §1

[11] = test system: sicklepod (Cassia obtusifolia, CASOB); assay: Post-emerge test, greenhouse herbicide activity screening; settings: phytotoxicity rating 0-100 (0 no damage, 100 complete death), 14 days after application
In short: (§2)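 Compounds in acetone were track-sprayed at 187 l/ha, 15–1000 g ai/ha, onto sandy loam pots. Pre-emerge seeds were sown one day before spraying, with surface watering afterwards. Post-emerge plants were at the 2–3 leaf stage and sprayed with 0.25% v/v non-ionic surfactant. Injury was rated 0–100 at 14 days.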

[12] = test system: velvetleaf (Abutilon theophrasti, ABUTH); assay: as above; settings: phytotoxicity rating 0-100 (0 no damage, 100 complete death), 14 days after application
In short: as §2

[13] = test system: barnyardgrass (Echinochloa crus-galli, ECHCG); assay: as above; settings: phytotoxicity rating 0-100 (0 no damage, 100 complete death), 14 days after application
In short: as §2

[14] = test system: ivyleaf morningglory (Ipomoea hederacea, IPOHE); assay: as above; settings: phytotoxicity rating 0-100 (0 no damage, 100 complete death), 14 days after application
In short: as §2

[15] = test system: lambsquarters (Chenopodium album, CHEAL); assay: as above; settings: phytotoxicity rating 0-100 (0 no damage, 100 complete death), 14 days after application
In short: as §2

[16] = test system: large crabgrass (Digitaria sanguinalis, DIGSA); assay: as above; settings: phytotoxicity rating 0-100 (0 no damage, 100 complete death), 14 days after application
In short: as §2

[17] = test system: redroot pigweed (Amaranthus retroflexus, AMARE); assay: as above; settings: phytotoxicity rating 0-100 (0 no damage, 100 complete death), 14 days after application
In short: as §2

[18] = test system: common ragweed (Ambrosia artemisizfolia L., AMBEL); assay: as above; settings: phytotoxicity rating 0-100 (0 no damage, 100 complete death), 14 days after application
In short: as §2

[19] = test system: green foxtail (Setaria viridis, SETVI); assay: as above; settings: phytotoxicity rating 0-100 (0 no damage, 100 complete death), 14 days after application
In short: as §2

[20] = test system: johnsongrass (Sorghum halepense, SORHA); assay: as above; settings: phytotoxicity rating 0-100 (0 no damage, 100 complete death), 14 days after application
In short: as §2

[21] = test system: field corn (Zea mays L., var. Dekalb 535, CORN); assay: Pre-emerge test, crop safety; settings: pre-emerge, rated 14 days after application, 0 = no damage, 100 = complete death
In short: (§3)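 Herbicidal damage is scored 0 (none) to 100 (complete plant death) two weeks after a simulated field spray. Rates span 15–1000 g ai/ha, delivered in acetone at 187 l/ha. For post-emergence treatments, plants have 2–3 leaves and the spray carries 0.25% v/v non-ionic surfactant.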

[22] = test system: upland rice (Oryza sp., var. Tebonnet, RICE); assay: Pre-emerge test, crop safety; settings: pre-emerge, rated 14 days after application, 0 = no damage, 100 = complete death
In short: as §3

[23] = test system: field corn (Zea mays L., var. Dekalb 535, CORN); assay: Post-emerge test, crop safety; settings: phytotoxicity rating 0-100 (0 no damage, 100 complete death), 14 days after application
In short: (§4)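 Each test used a mechanized track sprayer delivering 187 l/ha of acetone solution at 15–1000 g ai/ha. Post-emerge foliage at 2–3 leaves was treated with added 0.25% v/v non-ionic surfactant and bottom-watered only. Injury was assessed on day 14, where 100 means total kill.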

[24] = test system: upland rice (Oryza sp., var. Tebonnet, RICE); assay: Post-emerge test, crop safety; settings: phytotoxicity rating 0-100 (0 no damage, 100 complete death), 14 days after application
In short: as §4

`COc1c(Cl)cc(F)c(-n2c(=O)c(N)c(C(F)(F)F)n(C)c2=O)c1N` [Compound 1-10] was tested, and the “Pre-emerge Herbicidal Activity AMARE (phytotoxicity rating, scale 0-100)” value ([1]; 63 g ai/ha) was 70, the “Pre-emerge Herbicidal Activity AMARE (phytotoxicity rating, scale 0-100)” value ([1]; 250 g ai/ha) was 100 and the “Pre-emerge Herbicidal Activity CASOB (phytotoxicity rating, scale 0-100)” value ([2]; 63 g ai/ha) was 20. The “Pre-emerge Herbicidal Activity CASOB (phytotoxicity rating, scale 0-100)” value ([2]; 250 g ai/ha) was 50, the “Pre-emerge Herbicidal Activity ABUTH (phytotoxicity rating, scale 0-100)” value ([3]; 63 g ai/ha) was 100 and the “Pre-emerge Herbicidal Activity ABUTH (phytotoxicity rating, scale 0-100)” value ([3]; 250 g ai/ha) was 100. The “Pre-emerge Herbicidal Activity ECHCG (phytotoxicity rating, scale 0-100)” value ([4]; 63 g ai/ha) was 0, the “Pre-emerge Herbicidal Activity ECHCG (phytotoxicity rating, scale 0-100)” value ([4]; 250 g ai/ha) was 0 and the “Pre-emerge Herbicidal Activity IPOHE (phytotoxicity rating, scale 0-100)” value ([5]; 63 g ai/ha) was 0. For the same compound, the “Pre-emerge Herbicidal Activity IPOHE (phytotoxicity rating, scale 0-100)” value ([5]; 250 g ai/ha) was 60, the “Pre-emerge Herbicidal Activity CHEAL (phytotoxicity rating, scale 0-100)” value ([6]; 63 g ai/ha) was 30 and the “Pre-emerge Herbicidal Activity CHEAL (phytotoxicity rating, scale 0-100)” value ([6]; 250 g ai/ha) was 100. For the same compound, the “Pre-emerge Herbicidal Activity DIGSA (phytotoxicity rating, scale 0-100)” value ([7]; 63 g ai/ha) was 0, the “Pre-emerge Herbicidal Activity DIGSA (phytotoxicity rating, scale 0-100)” value ([7]; 250 g ai/ha) was 30 and the “Pre-emerge Herbicidal Activity AMBEL (phytotoxicity rating, scale 0-100)” value ([8]; 63 g ai/ha) was 0. The “Pre-emerge Herbicidal Activity AMBEL (phytotoxicity rating, scale 0-100)” value ([8]; 250 g ai/ha) was 60, the “Pre-emerge Herbicidal Activity SETVI (phytotoxicity rating, scale 0-100)” value ([9]; 63 g ai/ha) was 0 and the “Pre-emerge Herbicidal Activity SETVI (phytotoxicity rating, scale 0-100)” value ([9]; 250 g ai/ha) was 100. The “Pre-emerge Herbicidal Activity SORHA (phytotoxicity rating, scale 0-100)” value ([10]; 63 g ai/ha) was 0, the “Pre-emerge Herbicidal Activity SORHA (phytotoxicity rating, scale 0-100)” value ([10]; 250 g ai/ha) was 0 and the “Post-emerge Herbicidal Activity CASOB” value ([11]; 63 g ai/ha) was 0. The “Post-emerge Herbicidal Activity CASOB” value ([11]; 250 g ai/ha) was 10, the “Post-emerge Herbicidal Activity ABUTH” value ([12]; 63 g ai/ha) was 30 and the “Post-emerge Herbicidal Activity ABUTH” value ([12]; 250 g ai/ha) was 90. For the same compound, the “Post-emerge Herbicidal Activity ECHCG” value ([13]; 63 g ai/ha) was 0, the “Post-emerge Herbicidal Activity ECHCG” value ([13]; 250 g ai/ha) was 0 and the “Post-emerge Herbicidal Activity IPOHE” value ([14]; 63 g ai/ha) was 20. The “Post-emerge Herbicidal Activity IPOHE” value ([14]; 250 g ai/ha) was 70, the “Post-emerge Herbicidal Activity CHEAL” value ([15]; 63 g ai/ha) was 10 and the “Post-emerge Herbicidal Activity CHEAL” value ([15]; 250 g ai/ha) was 50. The “Post-emerge Herbicidal Activity DIGSA” value ([16]; 63 g ai/ha) was 0, the “Post-emerge Herbicidal Activity DIGSA” value ([16]; 250 g ai/ha) was 0 and the “Post-emerge Herbicidal Activity AMARE” value ([17]; 63 g ai/ha) was 10. The “Post-emerge Herbicidal Activity AMARE” value ([17]; 250 g ai/ha) was 30, the “Post-emerge Herbicidal Activity AMBEL” value ([18]; 63 g ai/ha) was 0 and the “Post-emerge Herbicidal Activity AMBEL” value ([18]; 250 g ai/ha) was 30. The “Post-emerge Herbicidal Activity SETVI” value ([19]; 63 g ai/ha) was 0, the “Post-emerge Herbicidal Activity SETVI” value ([19]; 250 g ai/ha) was 0 and the “Post-emerge Herbicidal Activity SORHA” value ([20]; 63 g ai/ha) was 0. The “Post-emerge Herbicidal Activity SORHA” value ([20]; 250 g ai/ha) was 0, the “Pre-emerge crop damage CORN (phytotoxicity rating, scale 0-100)” value ([21]; 63 g ai/ha) was 0 and the “Pre-emerge crop damage CORN (phytotoxicity rating, scale 0-100)” value ([21]; 250 g ai/ha) was 0. The “Pre-emerge crop damage RICE (phytotoxicity rating, scale 0-100)” value ([22]; 63 g ai/ha) was 0, the “Pre-emerge crop damage RICE (phytotoxicity rating, scale 0-100)” value ([22]; 250 g ai/ha) was 0 and the “Post-emerge Herbicidal Activity CORN (crop damage)” value ([23]; 63 g ai/ha) was 0. For the same compound, the “Post-emerge Herbicidal Activity CORN (crop damage)” value ([23]; 250 g ai/ha) was 0, the “Post-emerge Herbicidal Activity RICE (crop damage)” value ([24]; 63 g ai/ha) was 0 and the “Post-emerge Herbicidal Activity RICE (crop damage)” value ([24]; 250 g ai/ha) was 0.
